From US10610602B2, “Tumor cell-specific responsive self-assembling drug nanoconjugate” (KOREA INSTITUTE OF SCIENCE AND TECHNOLOGY, priority 2017, dated 2020)
Entries after “also recorded” stand apart in the source; their conditions may differ. Where two headings read alike, the source gives them in different places. Residues, ends and D or L forms follow the SMILES beside them. No end group written: not given here. *: point of attachment. Doxorubicin(3'-N) = COc1cccc2c1C(=O)c1c(O)c3c(c(O)c1C2=O)C[C@@](O)(C(=O)CO)C[C@@H]3O[C@H]1C[C@H](N*)[C@H](O)[C@H](C)O1

Assays:
[1] = test system: HT29 tumor; assay: Doxorubicin accumulation in tumor tissues after intravenous administration, near-infrared fluorescence
Experimental: (§1) In this example, the in vivo anticancer effects of doxorubicin (Free DOX) and FRRG-DOX (SEQ ID NO: 7) of Example 1 were investigated. First, 1×10^7 HT-29 cells were directly injected into the right flank of each tumor animal model constructed in 1) (n=4 per group). When the tumor size reached ˜250-300 mm3, doxorubicin (Free DOX, 5 mg/kg) and FRRG DOX (SEQ ID NO: 7) of Example 1 (5 mg/kg) were administered intravenously once every three days for 15 days.
(§2) The therapeutic efficacies of Free DOX, FRRG-DOX (SEQ ID NO: 7), and the control were compared by measuring the tumor volumes (maximum diameter×minimum diameter 2×0.53) for 15 days. The viabilities and weights of the tumor animal models were measured once a day for 15 days. The accumulations of Free DOX and FRRG-DOX (SEQ ID NO: 7) in the tumor tissues of the tumor animal models were monitored using IVIS Lumina Series III (PerkinElmer, Massachusetts, USA). The fluorescence intensities of Free DOX and FRRG-DOX (SEQ ID NO: 7) in the tumor tissues were quantified using the Living Image software (PerkinElmer, Massachusetts, USA).

[2] = Nanoparticle size by dynamic light scattering; format: physicochemical; conditions: FIG. 5B
Experimental: The size distribution was measured using Zetasizer Nano ZS (Malvern Instruments, Worcestershire, U.K).

[3] = test system: cells; assay: Cellular and nuclear uptake of drug conjugates of Examples 2-4, confocal microscopy; format: cell-based; conditions: for absorption into cells / antitumor effects or intracellular uptake effects: FIGS. 5C and 5D
Text: In FIG. 5D, “Cytosol “and “Nucleus” indicate the fluorescence intensities of DOX measured in cytosol and cell nuclei, respectively.

[4] = test system: HT-29 cells; assay: In vitro cell viability (CCK); format: cell-based, human; conditions: HT29, FIG. 5E
Experimental: (§3) First, HT-29 cells were plated in a 96-well plate at a density of 1×10^4 cells/well. […] Then, […] of CCK solution was added to each well. After further culture for 30 min, the absorbance of each 96-well plate at 450 nm was analyzed using a microplate reader (VERSAmax™, Molecular Devices Corp., Sunnyvale, Calif.). For comparison, the cell viabilities (%) of H9C2 cells (normal cells) were measured in the same manner as described above.

[5] = test system: HT29 tumor; conditions: for viability (survival rate) of animal tumor models: for 16 days, FIG. 4C; for apoptosis in organ tissues (annexin V staining): heart, spleen, tumor tissues, FIG. 4D
Experimental: as §1, with “˜200 mm^3,” for “˜250-300 mm3,”, “by tail vein injection” for “intravenously”
as §2
Annexin V staining was performed to confirm that apoptosis occurred in tumor tissues excised from the tumor animal models. First, section slides (10 μm) of the excised tumor tissues were washed three times with DPBS, incubated with annexin V solution (200 μl of a binding buffer containing 5 μl of annexin V-Cy5.5) at 37° C. for 20 min, incubated with DAPI at room temperature for 15 min, placed on cover glass, and observed under a confocal laser microscope.

[6] = test system: hiPSC-CMs; assay: Multi-electrode array (MEA) analysis; format: cell-based, human; conditions: FRRG-DOX 0.2 μM; doxorubicin 0.1 μM; compared to the baseline
Experimental: Multi-electrode array analysis was conducted by the following procedure. First, human induced pluripotent stem cell-derived cardiomyocytes (hiPSC-CMs, Cellular Dynamics International [CDI], Madison, Wis., USA) were thawed in a 100 mm culture dish. After 1 week, the thawed hiPSC-CMs were plated in an MEA plate coated with fibronectin solution (50 μg/ml). On day 2 after thawing, the plating medium was replaced with a maintenance medium (CDI). Maintenance media were replaced with new ones every 2-3 days. Only 50% of the culture media were replaced with new ones. 2 weeks after plating in the plate, field potentials of spontaneously beating cardiomyocytes were recorded using a Maestro system (Axion Biosystems Inc., Atlanta, Ga., USA). The waveforms of the extracellular field potentials were recorded 10 min after the equilibration period. Inter-spike interval and extracellular field potential duration (FPD) were analyzed and quantified. To minimize the influence of the beat rate on FPD, corrected FPD (FPDcF) was calculated using Fridericia's formula 1: FPDcF=FPD/[inter−spike interval]1/3 (1)

[7] = Electrocardiography (ECG) analysis; format: in vivo, ICR mice; conditions: intravenous; 5 mg/kg doxorubicin or 10 mg/kg FRRG-doxorubicin; versus control
Experimental: ECG analysis was performed under the approval of the Institutional Animal Care and Use Committee at the Korea Institute of Toxicology. All procedures were performed according to the National Institutes of Health guidelines for the care and use of laboratory animals. A mixture of isoflourane and oxygen as an anaesthetic gas was injected at a rate of 2 cc/min to ICR mice (25-35 g, Orient Bio Inc., Seoul, Korea). ECG was measured before injection of the anaesthetic gas into an animal bio amp (ADinstruments Pty Ltd, Bella Vista, Australia). The measured ECG was defined as baseline. For 6 h after injection of the anaesthetic gas, ECG was measured. All mice were injected intravenously with saline, 5 mg/kg doxorubicin (in saline) or 10 mg/kg FRRG-doxorubicin (SEQ ID NO: 7) (Example 1) (in saline). The measured ECG data were analyzed using the LabChart 8 software (ADinstruments Pty Ltd, Bella Vista, Australia). Corrected QT (QTc) was calculated using Van de Water's formula 2 and Bazett's formula 3: QTc−V=0.087[(60/HR)−1] (2) QTc−B=QT/(RR)1/2 (3)

[8] = Heart damage markers in blood samples; conditions: versus control (saline), FIG. 4E
[9] = Non-enzymatic hydrolysis in PBS buffer only, HPLC; format: physicochemical; conditions: 37° C., 9 h
Experimental: The drug conjugate of Example 1 was allowed to react with other enzymes (10 μg/ml cathepsins D, E, and L) and PBS buffer only (in this case, a non-enzymatic hydrolysis product was obtained) and the reaction products were analyzed by HPLC at 37° C. for 9 h.

[10] = test system: H9C2 cells (normal cells); format: cell-based, Rattus
Experimental: as §3

[11] = rat, in vivo
[12] = intravenous, DAPI-stained tissue sections, FIG. 3G
[13] = 5 mg/kg tail vein once every three days for 15 days

In the case of `COc1cccc2c1C(=O)c1c(O)c3c(c(O)c1C2=O)C[C@@](O)(C(=O)CO)C[C@@H]3O[C@H]1C[C@H](NC(=O)CNC(=O)[C@H](CCCNC(=N)N)NC(=O)[C@H](CCCNC(=N)N)NC(C)=O)[C@H](O)[C@H](C)O1` [RRG-DOX], the “fluorescence intensity of doxorubicin in excised tumor tissues” value ([1]; 5 mg/kg intravenous, FIG. 3E/3F) is reported as “low fluorescence intensity” and the “doxorubicin accumulation in tumor tissues” value (“doxorubicin accumulation” below) [1, 12] is reported as “could not be effectively accumulated in tissues”.
In the case of FRRGGGGG-DOX (FRRGGGGG-doxorubicin), the “measured sizes of the nanoparticles” value [2] is reported as 300-700 nm, the absorption into cells [3] is reported as “not readily absorbed into cells” and the “antitumor effects or intracellular uptake effects” value [3] is reported as “showed antitumor effects or intracellular uptake effects”.
With GGGGFRRG-DOX (GGGGFRRG-doxorubicin) the “measured sizes of the nanoparticles” value [2] was 200-600 nm, the “antitumor effect (cell viability of HT29)” value [4] was “same antitumor effect as DOX; also recorded: most effective in antitumor action” and the “antitumor effects or intracellular uptake effects” value [3] was “showed antitumor effects or intracellular uptake effects”.
In the case of `COc1cccc2c1C(=O)c1c(O)c3c(c(O)c1C2=O)C[C@@](O)(C(=O)CO)C[C@@H]3O[C@H]1C[C@H](N)[C@H](O)[C@H](C)O1` [doxorubicin], the “doxorubicin accumulation” value [1, 12] is reported as “could not be effectively accumulated in tissues”, the “weight of the tumor animal models” value ([5]; 5 mg/kg tail vein once every three days) is reported as “began to decrease” and the “inhibition of tumor growth (tumor volume)” value [5, 13] is reported as “significantly inhibit tumor growth”. The “toxicity to normal cells in tumor animal models” value [5, 13] was “Toxicity to normal cells was observed”, the “viability (survival rate) of animal tumor models” value [5] was “mortality began to increase rapidly” and the “apoptosis in organ tissues (annexin V staining)” value [5] was “apoptosis was observed in all of the heart, spleen, and tumor tissues”. The FPD [6] was “significantly low compared to the baseline”, the FPDcF [6] was “significantly low compared to the baseline” and the QTc values [7] was “extended compared to those measured in the control”. The “levels of markers indicative of heart damage (hs troponin-T, Troponin-I, CK-MM, CPK total)” value [8] was “higher levels of all markers”.
In the case of GGFRRGGG-DOX (GGFRRGGG-doxorubicin), the “measured sizes of the nanoparticles” value [2] is reported as 50-200 nm, the “uptake into cell nuclei relative to drug conjugates of Examples 1 and 2” value ([3]; FIG. 5D) is reported as 10 times lower and the absorption into cells [3] is reported as “readily absorbed into cells”. For the same molecule, the “antitumor effects or intracellular uptake effects” value [3] was “showed antitumor effects or intracellular uptake effects”.
With `COc1cccc2c1C(=O)c1c(O)c3c(c(O)c1C2=O)C[C@@](O)(C(=O)CO)C[C@@H]3O[C@H]1C[C@H](NC(=O)CNC(=O)[C@H](CCCNC(=N)N)NC(=O)[C@H](CCCNC(=N)N)NC(=O)[C@H](Cc2ccccc2)NC(C)=O)[C@H](O)[C@H](C)O1` [FRRG-DOX] (Ac-FRRG-{Doxorubicin(3'-N)}) the “stability in phosphate buffered saline” value [9] was “very stable in phosphate buffered saline”, the “cell viability compared with group treated with doxorubicin alone (Free DOX)” value [10] was “significant difference in cell viability” and the “doxorubicin accumulation” value ([1]; mouse, in vivo, iv) was “doxorubicin was accumulated in the tumor tissues”. For the same molecule, the “toxicity to normal cells in tumor animal models” value [5, 13] was “no toxicity was observed”, the “viability (survival rate) of animal tumor models” value [5] was 100% and the “apoptosis in organ tissues (annexin V staining)” value [5] was “apoptosis was observed only in the tumor tissues”. The FPD [6] was “remained substantially unchanged”, the FPDcF [6] was “remained substantially unchanged” and the “levels of markers indicative of heart damage (hs troponin-T, Troponin-I, CK-MM, CPK total)” value [11] was “about two times lower than or comparable to those in the control”.
